# Reference: paper PMC11593696, “Discovery of Potent Benzothiazole Inhibitors of Oxidoreductase NQO2, a Target for Inflammation and Cancer” (International Journal of Molecular Sciences, 2024)
# Where two headings read alike, the source gives them in different places.
# Columns and labels:
# [1] = target: T1, recombinant human NQO2 (Homo sapiens, UniProt P16083); test: NQO2 enzyme inhibition assay (DCPIP substrate, NRH or EPR co-substrate); assay type: biochemical
# T1 sequence (P16083 1-231): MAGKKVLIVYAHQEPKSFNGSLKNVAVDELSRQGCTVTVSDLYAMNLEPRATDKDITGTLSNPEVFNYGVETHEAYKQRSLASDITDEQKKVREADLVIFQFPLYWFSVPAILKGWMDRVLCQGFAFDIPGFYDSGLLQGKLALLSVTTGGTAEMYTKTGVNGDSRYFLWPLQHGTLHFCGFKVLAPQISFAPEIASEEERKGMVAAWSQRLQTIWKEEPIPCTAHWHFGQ
# Description: In this assay, dichlorophenolindophenol (DCPIP) was used as a substrate for NQO2. NRH (SI or EP0152R) was used as the co-substrate for the enzyme.
# The NQO2 enzyme assay was carried out using a […] GO spectrophotometer by measuring the absorbance of DCPIP at 600 nm. NRH [31] or EPR were used as co-substrates. The experiment was performed using a 96-well plate with a […] final volume using phosphate buffer (50 mM, pH 7.4). The final concentrations were DCPIP 40 µM and NRH or EPR 200 µM. The final enzyme concentration was 100 ng. The assay was performed at 37 °C and initiated through the addition of NQO2. The initial rates of the enzyme reactions were calculated from the curve by taking the initial slopes of the reactions using the formula (ΔAb/ΔTime). The assay of inhibitors was carried out using the same assay conditions. […] Each experiment was performed in triplicate. Rates were converted to the percentage of enzyme activity, and IC50 values were calculated using GraphPad Prism 7.03 software using the non-linear regression function. IC50 values were determined as a 50% decrease in NQO2 activity.
# [2] = target: NQO2; conditions: read-out: dissociation constant; cited from earlier work
# [3] = DCPIP substrate, NRH co-substrate, read-out: IC50 for inhibition of NQO2
# [4] = inhibition of NQO2, DCPIP 40 µM, NRH or EPR 200 µM, phosphate buffer pH 7.4, 37 °C, triplicate, read-out: IC50 (µM) ± SD
"IC50 [1, 3] [µM]","IC50 [1, 4] [µM]",reduction in potency relative to compound 40 ([1]; removal of the 4-OMe or the 5-OMe from 40) [fold],melting point [°C],"inhibition of NQO2 enzymatic activity, in words [1]",SMILES,Kd [2] [µM]
,6.71 ± 0.02,,135 to 137,,"COc1ccc(OC)c(-c2nc3ccc(Br)cc3s2)c1 [Compound 25, 6-Bromo-2-(2,5-dimethoxyphenyl)benzo[d]thiazole]",
,> 100,,182 to 184,,"COc1ccc(OC)c(-c2nc3ccc(C#N)cc3s2)c1 [Compound 28, 2-(2,5-Dimethoxyphenyl)benzo[d]thiazole-6-carbonitrile]",
1.18,1.18 ± 0.002,,220 to 222,,"COc1ccc(OC)c(-c2nc3ccc(Cl)cc3s2)c1 [Compound 27, 6-Chloro-2-(2,5-dimethoxyphenyl)benzo[d]thiazole]",
,5.86 ± 0.07,,150 to 151,,"COc1ccc(-c2nc3ccc(OC)cc3s2)c(OC)c1 [Compound 16, 2-(2,4-Dimethoxyphenyl)-6-methoxybenzo[d]thiazole]",

# Further lines, the compound ahead of its results:
SMILES,"IC50 [1, 3] [µM]","IC50 [1, 4] [µM]",reduction in potency relative to compound 40 ([1]; removal of the 4-OMe or the 5-OMe from 40) [fold],melting point [°C],"inhibition of NQO2 enzymatic activity, in words [1]",Kd [2] [µM]
"COc1cc(OC)cc(-c2nc3ccc(OC)cc3s2)c1 [Compound 3, 2-(3,5-Dimethoxyphenyl)-6-methoxybenzo[d]thiazole]",0.108,0.108 ± 0.012,2,121 to 123,,
"COc1cc(-c2nc3ccc(F)cc3s2)cc(OC)c1OC [Compound 45, 6-Fluoro-2-(3,4,5-trimethoxyphenyl)benzo[d]thiazole]",,0.717 ± 0.015,,156 to 158,,
"COc1cc(-c2nc3ccc(N)cc3s2)cc(OC)c1OC [Compound 48, 2-(3,4,5-Trimethoxyphenyl)benzo[d]thiazol-6-amine]",0.079,0.079 ± 0.017,,212 to 215,,
"COc1ccc(-c2nc3ccc(C#N)cc3s2)c(OC)c1 [Compound 20, 2-(2,4-Dimethoxyphenyl)benzo[d]thiazole-6-carbonitrile]",,> 100,,235 to 237,,
"Oc1ccc(/C=C/c2cc(O)cc(O)c2)cc1 [Resveratrol, trans-3,4’,5-trihydroxystilbene]",,,,,,0.035
"COc1cc(OC)cc(C(=O)Nc2ccc3nc(-c4cc(OC)cc(OC)c4)sc3c2)c1 [Compound 14, N-(2-(3,5-Dimethoxyphenyl)benzo[d]thiazol-6-yl)-3,5-dimethoxybenzamide]",,1.36 ± 0.06,,159 to 162,further loss of activity,
"COc1cc(OC)cc(-c2nc3ccc(Br)cc3s2)c1 [Compound 4, 6-Bromo-2-(3,5-dimethoxyphenyl)benzo[d]thiazole]",,> 100,,164 to 165,,
"COc1cc(OC)cc(C(=O)Nc2ccc3nc(-c4cc(OC)c(OC)c(OC)c4)sc3c2)c1 [Compound 51, 3,5-Dimethoxy-N-(2-(3,4,5-trimethoxyphenyl)benzo[d]thiazol-6-yl)benzamide]",,3.11 ± 0.03,,185 to 187,,
"COc1cc(-c2nc3ccc(Br)cc3s2)cc(OC)c1OC [Compound 41, 6-Bromo-2-(3,4,5-trimethoxyphenyl)benzo[d]thiazole]",,0.193 ± 0.003,,171 to 172,,
